≈ marks a conversion by molar mass, not a printed value.
Assays:
Type in all cases: cell-based, Escherichia coli
E. coli [1] = assay: AMBR 16-well prototype, growth of E. coli on clusters of magnetic particles (FIG. 3d); conditions: 0, 2, 4 and 8 μg/mL antibiotic
From the text: FIGS. 3a-f illustrates results from one variation of a multiwell prototype device using a 16-well disposable card. […] FIG. 3b illustrates exemplary results showing raw periodic laser intensity data corresponding to the rotation of the sample for one well; FIG. 3c is an image of a 16 sensor array AMBR system prototype that incorporates low-power lasers and phototransistors to measure rotational data (with black tray that supports the disposable card). FIG. 3d illustrates a graph of antibiotic susceptibility results for averaged and normalized data with E. coli bacteria.
For example, when cell division occurs, a significant portion of the bacteria remain on the surface of the particles. Thus, a more reliable growth response may be detected (as cells are not all shed into the medium). […] Clusters may be readily detected and their rotation more easily optically resolved. […] This allows for response to antibiotics to be measured in a reproducible manner, which makes the technique more clinically relevant. FIGS. 3a-3f illustrate a prototype device that has been used as a proof-of-principle for the rotation of clusters and use of multiwell sample plates. The example shown in FIG. 3a is a 16-well disposable plate. Each well in the plate (which may also be referred to as a “card”) has been treated to contain a single cluster of magnetic particles that rotate as a group. […]

uropathogenic E. coli [2] = assay: AMBR with self-assembled magnetic particle clusters in hanging droplet, MIC measurement; conditions: from FIGS. 47a and 47b, rotational period of clusters
From the text: FIGS. 46a-c illustrates one example AMBR using a cluster formed in a well having a curved interface (in this example, a hanging droplet). […] This lensing effect may be used to amplify the rotational signal by magnifying the image through the droplet. […] An LED or laser light may be focused by the droplet curvature, magnifying the ‘image’ of the particle cluster a 100-fold. After the magnification, the rotational period can be observed and measured using a photodetector, thus observing a periodic signal corresponding to the rotational period of the cluster. FIG. 46b illustrates the change in cluster shape/size and rotation. The rotational period of the cluster changes accordingly: as the cluster itself expands (e.g., changing shape to have a larger diameter); as bacteria or other analytes attach to the cluster and/or expand/swell; or as the viscosity of the surrounding fluid changes. Viscosity may change if unbound cells divide and increase in number within the well. The rotational period of the cluster can be measured using the Fast Fourier Transform (FFT). The lower graphs in FIG. 46b show a shift in the peak observing the peak location. […]
The self-assembled magnetic particles shown in FIG. 47a-g enabled rapid MIC measurements, and the determined values agreed with values obtained with the traditional microdilution method. […]

[3] = test system: uropathogenic E. coli isolate; assay: MIC determination with the Vitek 2 system
E. coli [4] = assay: AMBR multiwell card reader, rotational period growth curves (FIG. 9); conditions: FIG. 9, driving frequency 100 Hz
Description: FIG. 9 illustrates the rotational period (in seconds) of rotating magnetic beads with attached E. coli versus time (in minutes) for various concentrations of antibiotic (Gentamicin).
A clinical sample (e.g. blood, urine, etc) may be mixed with a Muller-Hinton (MH) or phosphate buffered saline solution that contains magnetic beads that are coated with antibodies specific to the pathogen of interest. The bacteria and beads are incubated together to allow for ample time to bind and if necessary, population growth of the bacteria. […] This solution (now containing only […]) is then placed into the disposable (preferably multiwell) plate, where the beads are asynchronously rotated in the card reader for detection/identification and antibiotic susceptibility testing, where the minimum inhibitory concentration will be determined. […] Finally, the magnetic particles are rotated in the asynchronous regime and monitored optically to determine cell growth (elongation and/or division). […]
The asynchronous rotational period of the rotating cluster of magnetic particles may be measured using the light modulation that is produced when each laser beam (or other light) passes through the small magnetic bead cluster. […] From this, the rotation rate can be measured by simply tracking the peak-to-peak distance (period) of the modulated intensity. […]

uropathogenic E. coli [5] = assay: AMBR droplet microfluidic platform, small cell-population growth response (AST); conditions: for change in rotational period (bacterial growth): monitored minimum one hour
From the text: Asynchronous magnetic bead rotation (AMBR) may be performed on hanging droplets and on oil/water emulsions (e.g., droplets of water including the magnetic beads and analyte suspended in oil). For example an AMBR biosensor may use a droplet microfluidic platform that enables single cell and small cell population growth measurements for applications aimed at rapid antimicrobial susceptibility testing (“AST”). […] Growth was observed below the MIC, and no growth was observed above the MIC. A 52% change in the sensor signal (i.e. rotational period) was observed within 15 minutes, thus allowing AST measurements to be performed within minutes.
The microfluidic platform typically forms reproducibly or uniform-sized droplets of aqueous solution (e.g., media) including magnetic particles. […] In this example, the continuous phase consisted of mineral oil with 1% SPAN 80 (v/v). For bead (magnetic particle) characterization experiments, the aqueous phase consisted of PBS solution: PBS with 1% Pluronic F-68 and 0.1% BSA. For biological experiments, the aqueous phase consisted of MH broth solution: MH with 1% Pluronic F-68 and 0.1% BSA, which will be referred to as MH-PB.
In one example, using the microfluidic device described above and in FIGS. 23a and 23b, experiments were conducted on an Olympus IX71 inverted microscope. The microfluidic device was placed inside custom-built electromagnet coils that were integrated on the microscope stage (see, e.g., FIG. 23c). In this example, the rotating magnetic field was generated with a custom LabView program and data acquisition board (NI PCI-6221). The magnetic field driving frequency range was 0.1 Hz to 1 kHz, and the magnetic field strength was 0.9 mT, as measured with a 3-axis magnetic field probe (Senis Gmbh, C-H3A-2m).
Magnetic bead characterization experiments were conducted at 21° C. Single cell experiments were conducted at 21° C., with a 100× oil immersion objective. The magnetic field driving frequency was set at 500 Hz for control and growth experiments. One-minute videos at 15 frames per second (fps) were taken in 5-minute intervals with a digital camera. Small cell-population experiments were conducted at 35° C., with a 40× objective. The microfluidic device was placed on an ITO slide that was heated and maintained at a set temperature, 35+0.2° C. This temperature was monitored by a thermocouple that was coupled to the surface of the slide with a thermally conducting silver paste, Arctic Silver 5 (ARCTIC SILVER). The magnetic field driving frequency for small cell-population control and growth experiments was set at 50 Hz, and continuous videos were taken for a minimum of 5 hours at 2 fps. For small cell-population control and antibiotic response experiments, 1-minute videos were taken at 20 fps in either 5-minute or 20-minute intervals.
As mentioned, movies were captured with a digital camera (Basler, piA640-210 gm). The videos were analyzed using ImageJ (for example, see FIG. 23d). The rotational frequency of the bead complex was determined by monitoring the fluctuations in intensity profile at the target area of interest using ImageJ s ‘plot z-axis profile’ functionality. This intensity plot was analyzed by applying a Fast Fourier Transform (FFT) to the raw ImageJ data in MATLAB. The experimental error in determining the rotational period was designated as the FFT peak's full width at half max (FWHM) of the amplitude signal. […]

CC1(C)S[C@@H]2[C@H](NC(=O)[C@H](N)c3ccccc3)C(=O)N2[C@H]1C(=O)O [ampicillin]
effect on growth of E. coli on clusters (rotational period) (E. coli [1]): acts as a growth accelerating agent

[H]/N=C(/N)N[C@H]1[C@H](O)[C@@H](O)[C@H](O[C@@H]2O[C@@H](C)[C@](O)(C=O)[C@H]2O[C@@H]2O[C@@H](CO)[C@H](O)[C@@H](O)[C@@H]2NC)[C@@H](N/C(N)=N\[H])[C@@H]1O [streptomycin]
MIC (uropathogenic E. coli [2]; Escherichia coli, read-out: MIC measured with AMBR clusters): 8 µg/mL (≈ 13.8 µM)
MIC ([3]; Escherichia coli, isolate of the magnetic particle cluster experiments (FIGS. 47a-b), read-out: clinical (reference) MIC as determined with Vitek 2): 16 µg/mL (≈ 27.5 µM)

gentamicin
MIC measured with AMBR clusters (uropathogenic E. coli [2]): 2 µg/mL
minimum inhibitory concentration (MIC) from AMBR growth curves (E. coli [4]): 2 µg/mL
change in rotational period (bacterial growth) (uropathogenic E. coli [5]; 0.5 μg/mL gentamicin): increase in rotational period
change in rotational period (bacterial growth) (uropathogenic E. coli [5]; 2 μg/mL gentamicin): No substantial change in the rotational period
change in rotational period (bacterial growth) (uropathogenic E. coli [5]; 4 μg/mL gentamicin): No substantial change in the rotational period
difference in rotational period between bacteria treated above and below the MIC (uropathogenic E. coli [5]; after 15 minutes): 52%
difference in rotational period between bacteria treated above and below the MIC (uropathogenic E. coli [5]; within 25 minutes): 100%
MIC as determined with the Vitek 2 system ([3]; isolate of the droplet microfluidic experiments): 1 µg/mL
clinical (reference) MIC as determined with Vitek 2 ([3]; isolate of the magnetic particle cluster experiments (FIGS. 47a-b)): 2 µg/mL

Source: patent US8846331B2, “Asynchronous magnetic bead rotation sensing systems and methods” (The Regents of the University of Michigan, priority 2010, dated 2014)
